Test results taken from ChEMBL document CHEMBL4385643, “Design of a brain-penetrant CDK4/6 inhibitor for glioblastoma” (Bioorg Med Chem Lett, 2019).

Assays:
[1] = Plasma to brain permeability coefficient, Kp of the unbound compound in CD-1 mouse at 1.0 mg/kg, iv measured at 6 hrs post dose by LC/MS/MS analysis; assay type: ADME, organism-based; details: read-out: K(p,uu,brain)
[2] = biological target: Dual specificity protein kinase CLK1 (Homo sapiens) (UniProt P49759); assay: Inhibition of recombinant human GST-tagged CLK1 catalytic domain (129 to 484 residues) expressed in Escherichia coli expression system at 0.1 uM using serine/threonine-9 peptide as substrate incubated for 60 mins by Z'-LYTE assay relative to control
Chain of Dual specificity protein kinase CLK1 (Homo sapiens) (P49759 whole entry, looked up, the tested form may be a part): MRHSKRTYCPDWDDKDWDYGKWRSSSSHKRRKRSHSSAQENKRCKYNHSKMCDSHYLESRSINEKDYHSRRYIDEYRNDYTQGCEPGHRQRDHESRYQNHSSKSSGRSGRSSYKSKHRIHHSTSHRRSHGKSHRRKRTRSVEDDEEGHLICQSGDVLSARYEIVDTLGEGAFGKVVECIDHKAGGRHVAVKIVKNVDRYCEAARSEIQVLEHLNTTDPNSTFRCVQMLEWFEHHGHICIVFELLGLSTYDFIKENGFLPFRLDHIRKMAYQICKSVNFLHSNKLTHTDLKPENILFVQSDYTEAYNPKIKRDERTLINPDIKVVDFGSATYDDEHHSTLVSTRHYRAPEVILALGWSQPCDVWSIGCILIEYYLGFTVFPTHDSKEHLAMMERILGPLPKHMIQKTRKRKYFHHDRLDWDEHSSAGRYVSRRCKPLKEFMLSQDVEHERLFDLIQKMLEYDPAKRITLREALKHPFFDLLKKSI

[3] = biological target: Dual specificity tyrosine-phosphorylation-regulated kinase 3 (Homo sapiens) (UniProt O43781); assay: Inhibition of recombinant full length human GST-tagged DYRK3 expressed in baculovirus expression system at 0.1 uM using serine/threonine-9 peptide as substrate incubated for 60 mins by Z'-LYTE assay relative to control
Chain of Dual specificity tyrosine-phosphorylation-regulated kinase 3 (Homo sapiens) (O43781 whole entry): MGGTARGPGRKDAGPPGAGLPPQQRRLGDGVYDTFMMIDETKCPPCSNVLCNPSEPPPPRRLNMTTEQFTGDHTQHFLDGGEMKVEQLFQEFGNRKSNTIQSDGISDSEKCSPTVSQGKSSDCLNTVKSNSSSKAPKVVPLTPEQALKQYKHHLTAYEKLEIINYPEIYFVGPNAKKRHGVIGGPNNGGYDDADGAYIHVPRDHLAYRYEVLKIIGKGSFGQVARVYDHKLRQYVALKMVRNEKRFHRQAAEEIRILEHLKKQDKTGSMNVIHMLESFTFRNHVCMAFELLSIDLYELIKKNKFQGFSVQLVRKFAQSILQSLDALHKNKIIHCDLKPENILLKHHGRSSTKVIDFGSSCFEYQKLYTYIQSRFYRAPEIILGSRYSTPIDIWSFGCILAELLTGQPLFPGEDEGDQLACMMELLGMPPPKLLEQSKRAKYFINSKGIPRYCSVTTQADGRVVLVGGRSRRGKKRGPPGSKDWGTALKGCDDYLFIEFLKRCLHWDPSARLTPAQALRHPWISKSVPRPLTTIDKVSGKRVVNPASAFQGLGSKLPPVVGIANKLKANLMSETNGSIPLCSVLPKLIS

[4] = biological target: Glycogen synthase kinase-3 alpha (Homo sapiens) (UniProt P49840); assay: Inhibition of recombinant full length human GST-tagged GSK3alpha expressed in baculovirus expression system at 0.1 uM using serine/threonine-9 peptide as substrate incubated for 60 mins by Z'-LYTE assay relative to control
Chain of Glycogen synthase kinase-3 alpha (Homo sapiens) (P49840 2-483 limits assumed): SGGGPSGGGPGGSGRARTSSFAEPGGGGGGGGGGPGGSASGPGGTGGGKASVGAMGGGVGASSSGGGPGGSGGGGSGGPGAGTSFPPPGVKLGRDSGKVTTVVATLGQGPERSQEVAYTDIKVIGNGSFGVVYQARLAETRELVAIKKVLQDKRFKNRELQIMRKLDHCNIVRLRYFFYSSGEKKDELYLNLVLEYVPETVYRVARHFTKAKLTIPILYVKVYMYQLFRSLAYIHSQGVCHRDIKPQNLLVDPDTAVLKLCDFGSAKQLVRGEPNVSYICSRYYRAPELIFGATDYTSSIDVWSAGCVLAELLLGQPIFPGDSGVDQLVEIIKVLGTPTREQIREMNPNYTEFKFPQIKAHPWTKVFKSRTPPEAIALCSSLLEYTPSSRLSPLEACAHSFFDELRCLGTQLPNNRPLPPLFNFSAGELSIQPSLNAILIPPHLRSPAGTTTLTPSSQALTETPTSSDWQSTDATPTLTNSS

[5] = biological target: Homeodomain-interacting protein kinase 2 (Homo sapiens) (UniProt Q9H2X6); assay: Inhibition of recombinant full length human GST-tagged HIPK2 expressed in baculovirus expression system at 0.1 uM using serine/threonine-9 peptide as substrate incubated for 60 mins by Z'-LYTE assay relative to control
Chain of Homeodomain-interacting protein kinase 2 (Homo sapiens) (Q9H2X6 whole entry, looked up): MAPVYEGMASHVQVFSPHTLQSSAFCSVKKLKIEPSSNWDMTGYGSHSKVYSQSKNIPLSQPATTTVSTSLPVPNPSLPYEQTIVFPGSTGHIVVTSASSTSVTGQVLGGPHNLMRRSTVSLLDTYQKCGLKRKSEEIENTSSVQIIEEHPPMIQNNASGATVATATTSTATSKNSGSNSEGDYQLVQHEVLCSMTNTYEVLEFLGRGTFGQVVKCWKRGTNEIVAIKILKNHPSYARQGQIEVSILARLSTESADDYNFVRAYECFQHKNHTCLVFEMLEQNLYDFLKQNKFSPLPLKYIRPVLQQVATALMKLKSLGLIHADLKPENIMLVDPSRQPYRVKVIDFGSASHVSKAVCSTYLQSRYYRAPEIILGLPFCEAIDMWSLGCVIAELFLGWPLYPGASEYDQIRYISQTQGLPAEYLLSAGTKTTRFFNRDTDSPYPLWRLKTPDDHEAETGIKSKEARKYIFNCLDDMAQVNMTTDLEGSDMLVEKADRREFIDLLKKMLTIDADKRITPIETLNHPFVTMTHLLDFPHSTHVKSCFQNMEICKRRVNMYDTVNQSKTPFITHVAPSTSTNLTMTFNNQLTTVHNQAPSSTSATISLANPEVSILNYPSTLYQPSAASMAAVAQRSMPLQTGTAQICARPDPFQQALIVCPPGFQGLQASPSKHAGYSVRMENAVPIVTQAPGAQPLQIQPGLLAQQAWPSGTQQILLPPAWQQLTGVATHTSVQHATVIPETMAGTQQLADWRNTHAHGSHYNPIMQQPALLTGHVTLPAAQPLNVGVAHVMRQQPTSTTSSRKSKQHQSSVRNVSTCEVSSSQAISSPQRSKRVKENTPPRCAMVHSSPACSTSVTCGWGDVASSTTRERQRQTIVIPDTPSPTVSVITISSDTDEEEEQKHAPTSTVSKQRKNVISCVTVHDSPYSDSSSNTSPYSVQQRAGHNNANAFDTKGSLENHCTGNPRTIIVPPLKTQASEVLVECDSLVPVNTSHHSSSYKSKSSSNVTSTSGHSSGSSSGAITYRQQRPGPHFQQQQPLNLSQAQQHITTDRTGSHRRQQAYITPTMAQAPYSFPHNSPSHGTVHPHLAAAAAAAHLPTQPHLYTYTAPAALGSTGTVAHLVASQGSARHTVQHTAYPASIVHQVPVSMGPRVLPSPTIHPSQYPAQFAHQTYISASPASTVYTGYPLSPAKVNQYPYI

[6] = biological target: CDK4/Cyclin D3 (Homo sapiens, UniProt P11802)
Chain of CDK4/Cyclin D3 (P11802 whole entry): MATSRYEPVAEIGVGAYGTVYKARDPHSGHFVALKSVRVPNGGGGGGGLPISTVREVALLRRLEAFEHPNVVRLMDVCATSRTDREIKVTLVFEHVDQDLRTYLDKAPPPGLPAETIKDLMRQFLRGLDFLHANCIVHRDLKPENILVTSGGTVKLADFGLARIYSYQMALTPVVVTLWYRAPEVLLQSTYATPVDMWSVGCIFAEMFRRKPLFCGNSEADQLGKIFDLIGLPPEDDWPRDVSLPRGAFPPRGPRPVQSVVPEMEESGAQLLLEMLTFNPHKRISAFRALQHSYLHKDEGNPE
Chain of CDK4/Cyclin D3 (P30281 whole entry, further chain): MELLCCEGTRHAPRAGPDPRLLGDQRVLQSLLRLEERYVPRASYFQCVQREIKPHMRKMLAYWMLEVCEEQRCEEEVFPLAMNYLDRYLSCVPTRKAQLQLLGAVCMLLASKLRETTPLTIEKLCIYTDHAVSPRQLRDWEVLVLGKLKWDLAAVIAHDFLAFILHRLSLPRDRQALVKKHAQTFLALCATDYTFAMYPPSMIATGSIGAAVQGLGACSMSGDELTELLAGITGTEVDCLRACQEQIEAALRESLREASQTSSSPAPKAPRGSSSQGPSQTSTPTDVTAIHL
Description: Inhibition of human full length GST-tagged CDK4 (1 to 303(end) amino acids)/Cyclin D3 (1 to 292(end) amino acids) expressed in baculovirus expression system assessed as inhibition constant using Ulight-4E-BP1 as substrate preincubated for 30 mins followed by substrate addition and incubated for 90 mins by TR-FRET assay

[7] = in vivo; details: CD-1, mouse, plasma, po, 25 mg/kg
Description: Protein binding in CD-1 mouse plasma assessed as fraction unbound at 25 mg/kg, po measured up to 6 hours by LC-MS/MS analysis

[8] = in vivo; details: CD-1, mouse, brain/plasma, po, 25 mg/kg
Description: Plasma to brain permeability coefficient, Kp of the unbound compound in CD-1 mouse at 25 mg/kg, po measured at 6 hrs post dose by LC/MS/MS analysis

[9] = biological target: Serine/threonine-protein kinase 26 (Homo sapiens) (UniProt Q9P289); assay: Inhibition of recombinant full length human GST-tagged MST4 expressed in baculovirus expression system at 0.1 uM using serine/threonine-7 peptide as substrate incubated for 60 mins by Z'-LYTE assay relative to control
Chain of Serine/threonine-protein kinase 26 (Homo sapiens) (Q9P289 2-416 limits assumed): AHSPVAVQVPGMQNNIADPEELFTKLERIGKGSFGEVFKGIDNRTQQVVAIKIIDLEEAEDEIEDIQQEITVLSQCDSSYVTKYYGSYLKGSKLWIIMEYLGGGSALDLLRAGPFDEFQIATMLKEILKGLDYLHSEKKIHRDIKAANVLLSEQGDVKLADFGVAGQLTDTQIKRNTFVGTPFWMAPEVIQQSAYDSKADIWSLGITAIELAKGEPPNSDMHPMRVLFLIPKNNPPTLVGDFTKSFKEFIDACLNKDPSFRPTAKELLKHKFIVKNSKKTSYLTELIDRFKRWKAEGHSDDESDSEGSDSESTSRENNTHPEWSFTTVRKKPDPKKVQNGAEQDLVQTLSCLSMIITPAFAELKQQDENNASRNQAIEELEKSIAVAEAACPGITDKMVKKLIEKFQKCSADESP

SMILES	Kp uu at 6 h [1]	inhibition [2] [%]	inhibition [3] [%]	inhibition [4] [%]	inhibition [5] [%]	Ki [6] [nM]	fraction unbound at 6 h [7]	Kp uu at 6 h [8]	inhibition [9] [%]
CCN1CC2(C1)CN(c1ccc(Nc3ncc(F)c(-c4cnn5c4[C@H](C)CCCC5)n3)nc1)C2	0.28	77.5	34	33	26	< 0.3	0.073	0.2	–
CCN1CCN(Cc2ccc(Nc3ncc(F)c(-c4cc(F)c5nc(C)n(C(C)C)c5c4)n3)nc2)CC1 [ABEMACICLIB]	–	–	–	–	–	–	–	–	-2
